The values that follow come from patent US11034650B2, “Compounds useful for treating a Mannheimia haemolytica or Histophilus somni infection” (Intervet Inc., priority 2016, dated 2021).

In brackets after ≈: the same amount, converted by molar mass. A value given as a limit tells only on which side of the number the result lay.

The subject of the first test is Mannheimia haemolytica MH 6374 (ATCC 33396, reference strain). Nature of the test: MIC, broth-microdilution (CLSI VET01-A4), strain MH 6374. Type of test: cell-based. To be noted: Mannheimia haemolytica strain MH 6374, broth-microdilution; unit assumed. Put shortly:
(§1)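 MIC recorded as the lowest drug level giving no growth visible to the naked eye, from two-fold serial dilutions. Interpretation followed VET01-S3.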
On the technique in general: Broth dilution looks for growth in wells or tubes with falling amounts of substance.
Turning to `CC(C)[C@H](NC(=O)c1ccc(C#Cc2ccc(CN3CCCC3)cc2)cc1)C(=O)NO` [Compound 212], the MIC MH 6374 amounted to 6.3 µg/mL (≈ 15 µM).

Turning to `CSC(C)(C)[C@H](NC(=O)c1ccc(C#Cc2ccc(CNCc3ccco3)s2)cc1)C(=O)NO` [Compound 308], the MIC MH 6374 was 0.8 µg/mL (≈ 1.61 µM).

`CC(C)([C@H](NC(=O)c1ccc(C#Cc2ccc(CNCc3ccco3)s2)cc1)C(=O)NO)S(C)(=O)=O` [Compound 321] yielded an MIC MH 6374 of at most 0.1 µg/mL.

In turn, `CC(=O)C(NC(=O)c1ccc(C#Cc2ccc(CNCc3ccccc3)cc2)cc1)C(=O)NO` (stereo not shown) [Compound 400] came in with an MIC MH 6374 of 1.6 µg/mL (≈ 3.51 µM).

For the next test, the system named is Pasteurella multocida PM 6267 (P 2225 (L386), reference strain, mouse infection strain). Nature of the test: MIC, broth-microdilution (CLSI VET01-A4), strain PM 6267. The class given is cell-based. The settings on record: Pasteurella multocida strain PM 6267, broth-microdilution; unit assumed. In outline: as §1
Compound `CC(C)[C@H](NC(=O)c1ccc(C#Cc2ccc(CN3CCCC3)cc2)cc1)C(=O)NO` [Compound 212] showed an MIC PM 6267 of 0.2 µg/mL (≈ 0.477 µM).

In turn, `CSC(C)(C)[C@H](NC(=O)c1ccc(C#Cc2ccc(CNCc3ccco3)s2)cc1)C(=O)NO` [Compound 308] gave an MIC PM 6267 of 0.8 µg/mL (≈ 1.61 µM).

As for `CC(C)([C@H](NC(=O)c1ccc(C#Cc2ccc(CNCc3ccco3)s2)cc1)C(=O)NO)S(C)(=O)=O` [Compound 321], the MIC PM 6267 was at most 0.1 µg/mL.

For the compound `CC(=O)C(NC(=O)c1ccc(C#Cc2ccc(CNCc3ccccc3)cc2)cc1)C(=O)NO` (stereo not shown) [Compound 400], the MIC PM 6267 is 3.1 µg/mL (≈ 6.81 µM).

A further test relates to Pasteurella multocida PM 10775 (080130003051, BRD field isolate). Nature of the test: MIC, broth-microdilution (CLSI VET01-A4), strain PM 10775. Type of test: cell-based. To be noted: Pasteurella multocida strain PM 10775, broth-microdilution; unit assumed. Put shortly:
as §1
`CC(C)[C@H](NC(=O)c1ccc(C#Cc2ccc(CN3CCCC3)cc2)cc1)C(=O)NO` [Compound 212] had an MIC PM 10775 of at most 0.1 µg/mL.

`CSC(C)(C)[C@H](NC(=O)c1ccc(C#Cc2ccc(CNCc3ccco3)s2)cc1)C(=O)NO` [Compound 308] returned an MIC PM 10775 of at most 0.1 µg/mL.

In turn, `CC(C)([C@H](NC(=O)c1ccc(C#Cc2ccc(CNCc3ccco3)s2)cc1)C(=O)NO)S(C)(=O)=O` [Compound 321] showed an MIC PM 10775 of at most 0.1 µg/mL.

The compound `CC(=O)C(NC(=O)c1ccc(C#Cc2ccc(CNCc3ccccc3)cc2)cc1)C(=O)NO` (stereo not shown) [Compound 400] gave an MIC PM 10775 of 0.8 µg/mL (≈ 1.76 µM).

A further test relates to Pasteurella multocida PM 6391 (ATCC 43137, reference strain). Nature of the test: MIC, broth-microdilution (CLSI VET01-A4), strain PM 6391. Type of test: cell-based. The settings on record: Pasteurella multocida strain PM 6391, broth-microdilution; unit assumed. In outline: as §1
The compound `CC(C)[C@H](NC(=O)c1ccc(C#Cc2ccc(CN3CCCC3)cc2)cc1)C(=O)NO` [Compound 212] came in with an MIC PM 6391 of 0.4 µg/mL (≈ 0.953 µM).

For the compound `CSC(C)(C)[C@H](NC(=O)c1ccc(C#Cc2ccc(CNCc3ccco3)s2)cc1)C(=O)NO` [Compound 308], the MIC PM 6391 was 0.4 µg/mL (≈ 0.804 µM).

Compound `CC(C)([C@H](NC(=O)c1ccc(C#Cc2ccc(CNCc3ccco3)s2)cc1)C(=O)NO)S(C)(=O)=O` [Compound 321] came in with an MIC PM 6391 of at most 0.1 µg/mL.

Take `CC(=O)C(NC(=O)c1ccc(C#Cc2ccc(CNCc3ccccc3)cc2)cc1)C(=O)NO` (stereo not shown) [Compound 400]: the MIC PM 6391 was at most 0.1 µg/mL.

The subject of the next test is Mannheimia haemolytica MH 13065 (XB0446-6003.9, BRD field isolate). Nature of the test: MIC, broth-microdilution (CLSI VET01-A4), strain MH 13065. To be noted: Mannheimia haemolytica strain MH 13065, broth-microdilution; unit assumed. Type of test: cell-based. In outline:
as §1
`CC(C)[C@H](NC(=O)c1ccc(C#Cc2ccc(CN3CCCC3)cc2)cc1)C(=O)NO` [Compound 212] displayed an MIC MH 13065 of 3.1 µg/mL (≈ 7.39 µM).

As for `CSC(C)(C)[C@H](NC(=O)c1ccc(C#Cc2ccc(CNCc3ccco3)s2)cc1)C(=O)NO` [Compound 308], the MIC MH 13065 was found to be 0.8 µg/mL (≈ 1.61 µM).

With `CC(C)([C@H](NC(=O)c1ccc(C#Cc2ccc(CNCc3ccco3)s2)cc1)C(=O)NO)S(C)(=O)=O` [Compound 321], the MIC MH 13065 was found to be 0.2 µg/mL (≈ 0.378 µM).

Take `CC(=O)C(NC(=O)c1ccc(C#Cc2ccc(CNCc3ccccc3)cc2)cc1)C(=O)NO` (stereo not shown) [Compound 400]: the MIC MH 13065 worked out at 1.6 µg/mL (≈ 3.51 µM).

Another test relates to Pasteurella multocida PM 12080 (IV102277-0093, BRD field isolate). Nature of the test: MIC, broth-microdilution (CLSI VET01-A4), strain PM 12080. Type of test: cell-based. To be noted: Pasteurella multocida strain PM 12080, broth-microdilution; unit assumed. In outline: as §1
`CC(C)[C@H](NC(=O)c1ccc(C#Cc2ccc(CN3CCCC3)cc2)cc1)C(=O)NO` [Compound 212]: the MIC PM 12080 was 0.2 µg/mL (≈ 0.477 µM).

Regarding `CSC(C)(C)[C@H](NC(=O)c1ccc(C#Cc2ccc(CNCc3ccco3)s2)cc1)C(=O)NO` [Compound 308], the MIC PM 12080 turned out to be 0.4 µg/mL (≈ 0.804 µM).

Turning to `CC(C)([C@H](NC(=O)c1ccc(C#Cc2ccc(CNCc3ccco3)s2)cc1)C(=O)NO)S(C)(=O)=O` [Compound 321], the MIC PM 12080 is at most 0.1 µg/mL.

`CC(=O)C(NC(=O)c1ccc(C#Cc2ccc(CNCc3ccccc3)cc2)cc1)C(=O)NO` (stereo not shown) [Compound 400] came in with an MIC PM 12080 of 0.4 µg/mL (≈ 0.878 µM).

In the next test the test system is Mannheimia haemolytica MH 6357 (M7/2, reference strain, cattle infection strain). Nature of the test: MIC, broth-microdilution (CLSI VET01-A4), strain MH 6357. The class given is cell-based. The settings on record: Mannheimia haemolytica strain MH 6357, broth-microdilution; unit assumed. In outline: as §1
In turn, `CC(C)[C@H](NC(=O)c1ccc(C#Cc2ccc(CN3CCCC3)cc2)cc1)C(=O)NO` [Compound 212] registered an MIC MH 6357 of 3.1 µg/mL (≈ 7.39 µM).

Compound `CSC(C)(C)[C@H](NC(=O)c1ccc(C#Cc2ccc(CNCc3ccco3)s2)cc1)C(=O)NO` [Compound 308] yielded an MIC MH 6357 of 0.8 µg/mL (≈ 1.61 µM).

With `CC(C)([C@H](NC(=O)c1ccc(C#Cc2ccc(CNCc3ccco3)s2)cc1)C(=O)NO)S(C)(=O)=O` [Compound 321], the MIC MH 6357 is at most 0.1 µg/mL.

With `CC(=O)C(NC(=O)c1ccc(C#Cc2ccc(CNCc3ccccc3)cc2)cc1)C(=O)NO` (stereo not shown) [Compound 400], the MIC MH 6357 was found to be 0.8 µg/mL (≈ 1.76 µM).

For another test, the system named is Mannheimia haemolytica MH 13093 (XB0472-6014.1, BRD field isolate). Nature of the test: MIC, broth-microdilution (CLSI VET01-A4), strain MH 13093. Type of test: cell-based. To be noted: Mannheimia haemolytica strain MH 13093, broth-microdilution; unit assumed. In outline:
as §1
As for `CC(C)[C@H](NC(=O)c1ccc(C#Cc2ccc(CN3CCCC3)cc2)cc1)C(=O)NO` [Compound 212], the MIC MH 13093 came to 12.5 µg/mL (≈ 29.8 µM).

For the compound `CSC(C)(C)[C@H](NC(=O)c1ccc(C#Cc2ccc(CNCc3ccco3)s2)cc1)C(=O)NO` [Compound 308], the MIC MH 13093 stood at 1.6 µg/mL (≈ 3.22 µM).

`CC(C)([C@H](NC(=O)c1ccc(C#Cc2ccc(CNCc3ccco3)s2)cc1)C(=O)NO)S(C)(=O)=O` [Compound 321]: the MIC MH 13093 was found to be 0.2 µg/mL (≈ 0.378 µM).

The compound `CC(=O)C(NC(=O)c1ccc(C#Cc2ccc(CNCc3ccccc3)cc2)cc1)C(=O)NO` (stereo not shown) [Compound 400] showed an MIC MH 13093 of 1.6 µg/mL (≈ 3.51 µM).

In a further test the test system is Mannheimia haemolytica MH 10720 (154, BRD field isolate). Nature of the test: MIC, broth-microdilution (CLSI VET01-A4), strain MH 10720. The class given is cell-based. The settings on record: Mannheimia haemolytica strain MH 10720, broth-microdilution; unit assumed. Put shortly: as §1
With `CC(C)[C@H](NC(=O)c1ccc(C#Cc2ccc(CN3CCCC3)cc2)cc1)C(=O)NO` [Compound 212], the MIC MH 10720 stood at 0.8 µg/mL (≈ 1.91 µM).

Take `CSC(C)(C)[C@H](NC(=O)c1ccc(C#Cc2ccc(CNCc3ccco3)s2)cc1)C(=O)NO` [Compound 308]: the MIC MH 10720 is at most 0.1 µg/mL.

Turning to `CC(C)([C@H](NC(=O)c1ccc(C#Cc2ccc(CNCc3ccco3)s2)cc1)C(=O)NO)S(C)(=O)=O` [Compound 321], the MIC MH 10720 was at most 0.1 µg/mL.

Take `CC(=O)C(NC(=O)c1ccc(C#Cc2ccc(CNCc3ccccc3)cc2)cc1)C(=O)NO` (stereo not shown) [Compound 400]: the MIC MH 10720 amounted to 1.6 µg/mL (≈ 3.51 µM).

The next test relates to Mannheimia haemolytica MH 12587 (1071, BRD field isolate, macrolide-resistance: erm+, E+). Nature of the test: MIC, broth-microdilution (CLSI VET01-A4), strain MH 12587. The class given is cell-based. To be noted: Mannheimia haemolytica strain MH 12587, broth-microdilution; unit assumed. Put shortly:
as §1
As for `CC(C)[C@H](NC(=O)c1ccc(C#Cc2ccc(CN3CCCC3)cc2)cc1)C(=O)NO` [Compound 212], the MIC MH 12587 was found to be 12.5 µg/mL (≈ 29.8 µM).

`CSC(C)(C)[C@H](NC(=O)c1ccc(C#Cc2ccc(CNCc3ccco3)s2)cc1)C(=O)NO` [Compound 308] registered an MIC MH 12587 of 1.6 µg/mL (≈ 3.22 µM).

The compound `CC(C)([C@H](NC(=O)c1ccc(C#Cc2ccc(CNCc3ccco3)s2)cc1)C(=O)NO)S(C)(=O)=O` [Compound 321] showed an MIC MH 12587 of 0.4 µg/mL (≈ 0.755 µM).

As to `CC(=O)C(NC(=O)c1ccc(C#Cc2ccc(CNCc3ccccc3)cc2)cc1)C(=O)NO` (stereo not shown) [Compound 400], the MIC MH 12587 came to 0.2 µg/mL (≈ 0.439 µM).
